Data reported in patent US20010009912A1, “NEW DERIVATIVES OF PYRIDIL PIPERAZINE OR PYRIDAZINYL PIPERAZYL, PROCESS FOR PRODUCTION THEREOF AND MEDICAMENTS CONTAINING THESE COMPOUNDS” (priority 1995, published 2001).

Target: isolated activated GpIIb/IIIa receptor (Homo sapiens, UniProt P05106+P08514)
Test: GpIIb/IIIa-Fibrinogen-ELISA (inhibition of fibrinogen binding to coated receptor)
Details: inhibition of fibrinogen-GpIIb/IIIa interaction, O.D. at 405 nm
Description: Microtitre plates are coated overnight with 2 μg/ml isolated activated GpIIb/IIIa receptor. After removing the unbound receptor by several washing steps, the surface of the plates is blocked with 1% casein and washed again. The test substance is added in the required concentrations and the plates are incubated for 10 minutes while shaking in a linear shaker. The natural ligand of the gpIIb/IIIa receptor, fibrinogen, is added. After 1 hour of incubation the unbound fibrinogen is removed by several washing steps and bound fibrinogen is detected by a peroxidase-conjugated anti-fibrinogen monoclonal antibody by measuring the O.D. at 405 nm in an ELISA-reader. Inhibition of fibrinogen-GpIIb/IIIa interaction results in a low O.D. An IC50 is calculated in relation to a concentration-effect curve.
The GpIIb/IIIa-Fibrinogen-ELISA is a modification of the assays described in the following literature:
Nachman, R. L. & Leung, L. L. K. (1982): Complex formation of platelet membrane glycoproteins IIb and IIIa with fibrinogen. J. Clin. Invest. 69:263-269. Wright, P. S. et al. (1993): An echistatin C-terminal peptide activated GpIIbIIIa binding to fibrinogen, fibronectin, vitronectin and collagen type I and type IV. Biochem. J. 293:263-276.

Chain of isolated activated GpIIb/IIIa receptor (P08514 32-887 limits assumed): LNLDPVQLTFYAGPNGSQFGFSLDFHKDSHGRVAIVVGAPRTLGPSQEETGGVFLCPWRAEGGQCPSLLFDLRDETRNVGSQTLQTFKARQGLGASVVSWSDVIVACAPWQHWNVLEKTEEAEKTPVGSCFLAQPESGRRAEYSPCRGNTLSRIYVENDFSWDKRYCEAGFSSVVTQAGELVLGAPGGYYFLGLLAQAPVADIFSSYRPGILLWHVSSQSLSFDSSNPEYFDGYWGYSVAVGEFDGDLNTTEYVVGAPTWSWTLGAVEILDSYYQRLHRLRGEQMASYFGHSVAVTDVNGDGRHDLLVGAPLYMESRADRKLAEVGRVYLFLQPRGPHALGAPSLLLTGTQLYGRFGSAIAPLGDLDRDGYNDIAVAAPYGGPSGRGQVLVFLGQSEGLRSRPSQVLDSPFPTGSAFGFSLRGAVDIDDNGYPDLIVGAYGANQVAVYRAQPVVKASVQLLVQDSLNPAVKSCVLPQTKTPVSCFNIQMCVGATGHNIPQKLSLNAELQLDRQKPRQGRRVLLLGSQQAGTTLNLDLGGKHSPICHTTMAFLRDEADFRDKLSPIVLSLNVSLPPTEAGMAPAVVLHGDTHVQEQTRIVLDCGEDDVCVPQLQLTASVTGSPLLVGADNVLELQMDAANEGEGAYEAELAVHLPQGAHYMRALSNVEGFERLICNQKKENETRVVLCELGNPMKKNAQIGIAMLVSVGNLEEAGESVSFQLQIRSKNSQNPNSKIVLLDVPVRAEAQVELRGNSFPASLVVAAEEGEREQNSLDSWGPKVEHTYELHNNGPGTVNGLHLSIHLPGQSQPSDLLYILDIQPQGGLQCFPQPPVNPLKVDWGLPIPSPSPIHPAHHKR
Chain of isolated activated GpIIb/IIIa receptor (P08514 891-1039 partner limits assumed): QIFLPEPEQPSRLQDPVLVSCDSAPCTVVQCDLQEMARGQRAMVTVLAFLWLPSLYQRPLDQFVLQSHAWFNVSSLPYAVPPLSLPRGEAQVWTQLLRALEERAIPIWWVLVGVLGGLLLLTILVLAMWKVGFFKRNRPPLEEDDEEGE
Chain of isolated activated GpIIb/IIIa receptor (P05106 27-788): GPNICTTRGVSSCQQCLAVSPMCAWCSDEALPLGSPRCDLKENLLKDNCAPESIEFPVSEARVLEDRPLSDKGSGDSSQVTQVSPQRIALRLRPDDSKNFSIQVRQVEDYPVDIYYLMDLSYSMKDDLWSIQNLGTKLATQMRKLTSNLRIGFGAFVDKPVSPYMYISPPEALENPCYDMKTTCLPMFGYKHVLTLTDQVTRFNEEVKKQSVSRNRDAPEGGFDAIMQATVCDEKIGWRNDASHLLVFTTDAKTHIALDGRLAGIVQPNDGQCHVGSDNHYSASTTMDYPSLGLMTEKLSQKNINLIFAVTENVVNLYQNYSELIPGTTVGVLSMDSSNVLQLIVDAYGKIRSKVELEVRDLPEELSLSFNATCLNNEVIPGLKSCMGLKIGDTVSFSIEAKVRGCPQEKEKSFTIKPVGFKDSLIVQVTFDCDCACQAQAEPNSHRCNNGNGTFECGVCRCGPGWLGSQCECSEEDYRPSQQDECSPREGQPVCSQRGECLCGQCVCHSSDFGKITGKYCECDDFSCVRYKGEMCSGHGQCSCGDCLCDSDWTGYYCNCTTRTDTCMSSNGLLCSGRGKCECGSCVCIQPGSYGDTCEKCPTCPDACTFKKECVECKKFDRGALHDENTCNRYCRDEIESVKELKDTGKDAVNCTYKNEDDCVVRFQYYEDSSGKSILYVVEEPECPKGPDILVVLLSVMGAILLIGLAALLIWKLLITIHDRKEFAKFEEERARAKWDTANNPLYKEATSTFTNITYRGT

Compound | IC50
O=C(O)CC1CCC(CCN2CCN(c3ccncc3)CC2)CC1 (centres unmarked) [Example 4, {4-[2-(4-Pyridin-4-yl-piperazin-1-yl)-ethyl]-cyclohexyl} -acetic acid] | 100 nM
O=C(O)CC1(O)CCC(N2CCN(c3ccncc3)CC2)CC1 (stereo not drawn) [cis-1-hydroxy-4-[4-(4-pyridyl)-piperazin-1-yl] -acetic acid] | 2500 nM
